Assay results taken from ChEMBL document CHEMBL1201862, “PubChem BioAssay data set” (2004).
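Exposure lasted 48 hours, with cells grown in 96-well plates and compounds tested at five concentrations. GI50 = concentration required for 50% inhibition of growth.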 Calls of active or inactive are those of the source. No stated cut-off is given here; in the data, active = GI50 up to about 1.1 µM and inactive = higher.

How the values were obtained:
Assay in all cases: NCI tumour cell line growth inhibition, 48 h
SNB-19 = system: SNB-19
UACC-62 = system: UACC-62
NCI-H522 = system: NCI-H522
DMS-273 = system: DMS-273
EKVX = system: EKVX
A549 = system: A549
LXFL 529 = system: LXFL 529
HOP-92 = system: HOP-92
M14 = system: M14
SK-MEL-5 = system: SK-MEL-5
M19-MEL = system: M19-MEL
IGROV-1 = system: IGROV-1
HCT-15 = system: HCT-15
OVCAR-4 = system: OVCAR-4
CAKI-1 = system: CAKI-1
OVCAR-8 = system: OVCAR-8
786-0 = system: 786-0
A498 = system: A498
COLO 205 = system: COLO 205
SK-MEL-2 = system: SK-MEL-2
XF498 = system: XF498
DMS-114 = system: DMS-114
SW-620 = system: SW-620
OVCAR-3 = system: OVCAR-3
SN12C = system: SN12C
SF-268 = system: SF-268
ACHN = system: ACHN
MOLT-4 = system: MOLT-4
HT-29 = system: HT-29
SK-MEL-28 = system: SK-MEL-28
Malme-3M = system: Malme-3M
RXF 631 = system: RXF 631
K562 = system: K562
UO-31 = system: UO-31
KM-20L2 = system: KM-20L2
LOX IMVI = system: LOX IMVI
HCT-116 = system: HCT-116
NCI-H226 = system: NCI-H226
HL-60 = system: HL-60
SF-539 = system: SF-539
RXF 393 = system: RXF 393
OVCAR-5 = system: OVCAR-5
SF-295 = system: SF-295
SNB-78 = system: SNB-78
NCI-H460 = system: NCI-H460
TK-10 = system: TK-10
SNB-75 = system: SNB-75
UACC-257 = system: UACC-257
NCI-H23 = system: NCI-H23
SK-OV-3 = system: SK-OV-3
RPMI-8226 = system: RPMI-8226
KM12 = system: KM12
U-251 = system: U-251
HCC 2998 = system: HCC 2998
DLD-1 = system: DLD-1
CCRF-CEM = system: CCRF-CEM
HOP-62 = system: HOP-62

Compound: O=C(CC1(O)C(=O)Nc2c(Cl)cc(Cl)cc21)c1ccccc1 (configuration not stated)
- GI50 (SNB-19): > 100 µM (inactive)
- GI50 (UACC-62): 59.4 µM (inactive)
- GI50 (NCI-H522): 55.1 µM (inactive)
- GI50 (DMS-273): 45.7 µM (inactive)
- GI50 (EKVX): 82.4 µM (inactive)
- GI50 (A549): > 100 µM (inactive)
- GI50 (LXFL 529): 50.1 µM (inactive)
- GI50 (HOP-92): > 100 µM (inactive)
- GI50 (M14): > 100 µM (inactive)
- GI50 (SK-MEL-5): 60.3 µM (inactive)
- GI50 (M19-MEL): 31.6 µM (inactive)
- GI50 (IGROV-1): > 100 µM (inactive)
- GI50 (HCT-15): 80.9 µM
- GI50 (OVCAR-4): 39.2 µM (inactive)
- GI50 (CAKI-1): > 100 µM (inactive)
- GI50 (OVCAR-8): 71.8 µM (inactive)
- GI50 (786-0): > 100 µM (inactive)
- GI50 (A498): > 100 µM (inactive)
- GI50 (COLO 205): > 100 µM (inactive)
- GI50 (SK-MEL-2): > 100 µM (inactive)
- GI50 (XF498): 47.1 µM (inactive)
- GI50 (DMS-114): 39.7 µM (inactive)
- GI50 (SW-620): 40.9 µM (inactive)
- GI50 (OVCAR-3): > 100 µM (inactive)
- GI50 (SN12C): > 100 µM (inactive)
- GI50 (SF-268): 76 µM (inactive)
- GI50 (ACHN): > 100 µM (inactive)
- GI50 (MOLT-4): 33.6 µM (inactive)
- GI50 (HT-29): 31.6 µM (inactive)
- GI50 (SK-MEL-28): > 100 µM (inactive)
- GI50 (Malme-3M): > 100 µM (inactive)
- GI50 (RXF 631): > 100 µM (inactive)
- GI50 (K562): 47.4 µM (inactive)
- GI50 (UO-31): 52.1 µM (inactive)
- GI50 (KM-20L2): > 100 µM (inactive)
- GI50 (LOX IMVI): > 100 µM (inactive)
- GI50 (HCT-116): 50.5 µM (inactive)
- GI50 (NCI-H226): > 100 µM (inactive)
- GI50 (HL-60): 37 µM (inactive)
- GI50 (SF-539): > 100 µM (inactive)
- GI50 (RXF 393): > 100 µM (inactive)
- GI50 (OVCAR-5): > 100 µM (inactive)
- GI50 (SF-295): 52.6 µM (inactive)
- GI50 (SNB-78): 81.3 µM (inactive)
- GI50 (NCI-H460): > 100 µM (inactive)
- GI50 (TK-10): > 100 µM (inactive)
- GI50 (SNB-75): 38.6 µM (inactive)
- GI50 (UACC-257): 57 µM (inactive)
- GI50 (NCI-H23): 77.6 µM (inactive)
- GI50 (SK-OV-3): > 100 µM (inactive)
- GI50 (RPMI-8226): 31.3 µM (inactive)

Compound: COc1ccc2nc(NC(=O)C(=O)C(C(=O)c3ccccc3-c3ccccc3)C3OC(=O)c4ccccc43)sc2c1 (configuration not stated)
- GI50 (UACC-62): 17.3 µM (inactive)
- GI50 (NCI-H522): 9.89 µM (inactive)
- GI50 (KM12): 21.6 µM (inactive)
- GI50 (EKVX): 21.7 µM (inactive)
- GI50 (U-251): 12.8 µM (inactive)
- GI50 (A549): 23.8 µM (inactive)
- GI50 (HCC 2998): 15.4 µM (inactive)
- GI50 (LXFL 529): 13.5 µM (inactive)
- GI50 (HOP-92): 16.5 µM (inactive)
- GI50 (M14): 19 µM (inactive)
- GI50 (SK-MEL-5): 16.2 µM (inactive)
- GI50 (M19-MEL): 15.1 µM (inactive)
- GI50 (IGROV-1): 25.8 µM (inactive)
- GI50 (OVCAR-8): 20.1 µM (inactive)
- GI50 (786-0): 15.6 µM (inactive)
- GI50 (A498): 17.7 µM (inactive)
- GI50 (COLO 205): 20.5 µM (inactive)
- GI50 (DLD-1): 18.7 µM (inactive)
- GI50 (SK-MEL-2): 13.6 µM (inactive)
- GI50 (XF498): 21.5 µM (inactive)
- GI50 (DMS-114): 16.6 µM (inactive)
- GI50 (SW-620): 23.8 µM (inactive)
- GI50 (OVCAR-3): 18.5 µM (inactive)
- GI50 (SF-268): 20 µM (inactive)
- GI50 (ACHN): 26 µM (inactive)
- GI50 (MOLT-4): 19.5 µM (inactive)
- GI50 (HT-29): 36.6 µM (inactive)
- GI50 (SK-MEL-28): 20.5 µM (inactive)
- GI50 (Malme-3M): 12.1 µM (inactive)
- GI50 (RXF 631): 26.6 µM (inactive)
- GI50 (K562): 30.2 µM (inactive)
- GI50 (UO-31): 20.7 µM (inactive)
- GI50 (KM-20L2): 25.1 µM (inactive)
- GI50 (LOX IMVI): 17 µM (inactive)
- GI50 (HCT-116): 14.5 µM (inactive)
- GI50 (NCI-H226): 5.27 µM (inactive)
- GI50 (HL-60): 16 µM (inactive)
- GI50 (SF-539): 15.2 µM (inactive)
- GI50 (RXF 393): 10.2 µM (inactive)
- GI50 (OVCAR-5): 18.7 µM (inactive)
- GI50 (SF-295): 27.2 µM (inactive)
- GI50 (SNB-78): 35 µM (inactive)
- GI50 (NCI-H460): 21.7 µM (inactive)
- GI50 (TK-10): 25.2 µM (inactive)
- GI50 (CCRF-CEM): 15.5 µM (inactive)
- GI50 (HOP-62): 16.2 µM (inactive)
- GI50 (SNB-75): 16.1 µM (inactive)
- GI50 (UACC-257): 22.4 µM (inactive)
- GI50 (NCI-H23): 13.8 µM (inactive)
- GI50 (SK-OV-3): 27.4 µM (inactive)
- GI50 (RPMI-8226): 10.7 µM (inactive)
